In article PMC5094908 (Journal of applied toxicology : JAT, 2016):
“Also recorded” adds a separate entry of the source. Structures can show the parent of a compound that is named as a salt. Where two headings read alike, the source gives them in different places.

Assays:
[1] = system: Caspase 3/7 activity in SH-SY5Y and dSH-SY5Y cells; test: Caspase-Glo 3/7 luminescence assay, 24 h; type: cell-based
[2] = system: Caspase 3/7 activity in LUHMES and dLUHMES cells; test: Caspase-Glo 3/7 luminescence assay, 24 h; type: cell-based, human; settings: dLUHMES, 24 h, threshold […] above control
[3] = system: HEK293, SH-SY5Y, SK-N-SH, or N2a; settings: cited from earlier work
[4] = system: SH-SY5Y and dSH-SY5Y cells
[5] = system: SH-SY5Y and dSH-SY5Y cells; test: qPCR of apoptosis-pathway genes after 6 h toxicant treatment; type: cell-based, human; settings: DTCM 10 µM
[6] = 24 h exposure, 0.78 to 100 µM, vs SH-SY5Y/dSH-SY5Y and NSC/dNSC
[7] = 24 h exposure, [ATP], 0.78 to 100 µM

Compound | peak Caspase 3/7 activities, ranking among compounds [1] | increase of Caspase 3/7 activity in dLUHMES [2] | cytotoxic sensitivity ([ATP] IC50) of LUHMES and/or dLUHMES relative to the other cell lines (LUHMES and dLUHMES cells; [6]) | In vitro neural selectivity: neural-derived cell lines 10-fold more sensitive (10-fold lower IC50) than the median of the other 9 cell lines [3] | further results
CC[C@]1(O)C[C@H]2CN(CCc3c([nH]c4ccccc34)[C@@](C(=O)OC)(c3cc4c(cc3OC)N(C=O)[C@H]3[C@@](O)(C(=O)OC)[C@H](OC(C)=O)[C@]5(CC)C=CCN6CC[C@]43[C@@H]65)C2)C1 [VIN, Vincristine sulfate] |  |  |  |  | cytotoxic sensitivity ([ATP] IC50) of LUHMES and/or dLUHMES relative to the other cell lines (LUHMES and dLUHMES cells): more sensitive than the other cell lines
Nc1ccn([C@@H]2O[C@H](CO)[C@@H](O)[C@@H]2O)c(=O)n1 [ARAC, Cytosine arabinoside] | highest activities | but not dLUHMES | more sensitive than the other cell lines |  | relative cytotoxic sensitivity of LUHMES versus dLUHMES cells (LUHMES and dLUHMES cells): LUHMES cells were more sensitive than dLUHMES cells
O=C(O)CCCc1ccc(N(CCCl)CCCl)cc1 [CLM, Chlorambucil] | highest activities | but not dLUHMES | more sensitive than the other cell lines | selective toxicity to SH-SY5Y cells; also recorded: SH-SY5Y, ([Huang et al., 2008], [Xia et al., 2008]) | relative cytotoxic sensitivity of LUHMES versus dLUHMES cells (LUHMES and dLUHMES cells): LUHMES cells were more sensitive than dLUHMES cells
COc1cccc2c1C(=O)c1c(O)c3c(c(O)c1C2=O)C[C@@](O)(C(C)=O)C[C@@H]3O[C@H]1C[C@H](N)[C@H](O)[C@H](C)O1 [DAUN, Daunorubicin] | highest activities |  |  | HEK293, SH-SY5Y, SK-N- SH, N2a ([Huang et al., 2008], [Xia et al., 2008]) | 
COc1cccc2c1C(=O)c1c(O)c3c(c(O)c1C2=O)C[C@@](O)(C(=O)CO)C[C@@H]3O[C@H]1C[C@H](N)[C@H](O)[C@H](C)O1 [DOX, Doxorubicin] | highest activities |  |  | HEK293, SH-SY5Y, SK-N- SH ([Huang et al., 2008], [Xia et al., 2008]) | 
[CH3][Sn]([CH3])([CH3])[Cl] [TMT, Trimethyltin chloride] |  |  | more sensitive than the other cell lines |  | relative cytotoxic sensitivity of LUHMES versus dLUHMES cells (LUHMES and dLUHMES cells; [7]): dLUHMES cells were markedly more sensitive than LUHMES cells
C=C(C)[C@H]1Cc2c(ccc3c2O[C@@H]2COc4cc(OC)c(OC)cc4[C@@H]2C3=O)O1 [ROTE, Rotenone] |  |  | more sensitive than the other cell lines |  | cytotoxic sensitivity of dSH-SY5Y cells relative to SH-SY5Y cells [4]: more sensitive; relative cytotoxic sensitivity of LUHMES versus dLUHMES cells (LUHMES and dLUHMES cells): LUHMES cells were more sensitive than dLUHMES cells
O=C1C2CC=CCC2C(=O)N1SC(Cl)(Cl)Cl (centres unmarked) [CAP, Captan] |  |  | more sensitive than the other cell lines | SH-SY5Y ([Huang et al., 2008], [Xia et al., 2008]) | cytotoxic sensitivity of dSH-SY5Y cells relative to SH-SY5Y cells [4, 7]: slightly more sensitive; relative cytotoxic sensitivity of LUHMES versus dLUHMES cells (LUHMES and dLUHMES cells; [7]): dLUHMES cells were markedly more sensitive than LUHMES cells
Ziram |  |  |  | SH-SY5Y ([Huang et al., 2008], [Xia et al., 2008]) | 
Cc1ccc2c(c1[N+](=O)[O-])C(=O)c1ccccc1C2=O [MNA, 2-Methyl-1-nitroanthraquinone] |  | but not dLUHMES |  |  | cytotoxic sensitivity ([ATP] IC50) of LUHMES and/or dLUHMES relative to the other cell lines (LUHMES and dLUHMES cells): more sensitive than the other cell lines; In vitro neural selectivity: neural-derived cell lines 10-fold more sensitive (10-fold lower IC50) than the median of the other 9 cell lines ([3]; qHTS cytotoxicity, ref Huang et al., 2008, Xia et al., 2008): HEK293 ([Huang et al., 2008], [Xia et al., 2008])
N#CSCSC#N [DTCM, Dithiocyanatomethan] |  | but not dLUHMES | more sensitive than the other cell lines | SH-SY5Y ([Huang et al., 2008], [Xia et al., 2008]) | BIRC5 gene expression ([5]; SH-SY5Y and dSH-SY5Y (either cell type), MAP 12.5 µM, MALG 1.56 µM, MHG 1.56 µM, RSR 10 µM): down-regulation; BIRC3 gene expression ([5]; SH-SY5Y): down-regulation; FAS mRNA ([5]; SHSY5Y): down-regulated; BAG3 expression ([5]; both SH-SY5Y and dSH-SY5Y, MAP 12.5 µM, MALG 1.56 µM, MHG 1.56 µM, RSR 10 µM): increased expression; BIRC3 gene expression ([5]; dSH-SY5Y): did not respond detectably; FASL mRNA ([5]; dSH-SY5Y): unchanged; cytotoxic sensitivity of dSH-SY5Y cells relative to SH-SY5Y cells [4, 7]: slightly more sensitive; relative cytotoxic sensitivity of LUHMES versus dLUHMES cells (LUHMES and dLUHMES cells; [7]): dLUHMES cells were markedly more sensitive than LUHMES cells
